Assay results published in patent US7499847B2, “Crystalline VAP-1 and uses thereof” (Biotie Therapies Corporation, priority 2003, dated 2009).

Assays:
[1] = test system: T1, Total rat MAO (rat liver mitochondrial preparate); assay: Total rat MAO activity, colourimetric assay (tyramine substrate); assay type: biochemical; conditions: rat liver MAO preparation, 0.5 mM tyramine, 1 h at 37° C.; read-out: Total MAO inhibitory activity IC50
T1 construct: Rat MAO was prepared from rat liver; Mitochondrial preparate was aliquoted and stored at −70° C
Method: Rat MAO was prepared from rat liver by rinsing a 1 g liver sample several times in 14 ml KCl-EDTA-solution to remove all blood. Then 1 g liver sample was homogenised in 4 ml ice-cold potassium phosphate buffer (0.1 M, pH 7.4) with an Ultra-Turrax homogeniser (setting 11 000 rpm, 4×10 s). After centrifugation at 500 g for 10 min at 4° C. the supematant was carefully withdrawn and was centrifuged at 12 300 g for 15 min at 4° C. The supernatant was discharged and sedimented mitochondria were resuspended in 4 ml fresh phosphate buffer and centrifuged as previously. The mitochondria were suspended in 4 ml phosphate buffer and homogenized with an Ultra-Turrax homogeniser (setting 11 000 rpm, 2×10 s). Mitochondrial preparate was aliquoted and stored at −70° C. […] To each well was added a predetermined amount of inhibitor if required. The amount of inhibitor varied in each assay but was generally at a final concentration of between 10 nM and […]. Controls lacked inhibitor. […] The plates were incubated for 30 min at 37° C. and the background absorbance measured at 490 nm using a Wallac Victor II multilabel counter. To initiate the enzyme reaction 20 μl of 5 mM tyramine (final concentration 0.5 mM) was added and the plate incubated for 1 h at 37° C. The increase in absorbance, reflecting MAO activity, was measured at 490nm. Inhibition was presented as percent inhibition compared to control after correcting for background absorbance and IC50 values calculated using GraphPad Prism. Clorgyline and pargyline (inhibitors of MAO-A and -B respectively) at 0.5 μM were added to some wells as positive controls for MAO inhibition.

[2] = target: T2, Recombinant human VAP-1 SSAO (Homo sapiens, UniProt Q16853); assay: VAP-1 SSAO activity, coupled colourimetric assay (benzylamine substrate); assay type: biochemical; conditions: for IC50: CHO cell lysate with recombinant human VAP-1 SSAO, 1 mM benzylamine, 1 h at 37° C., read-out: VAP-1 SSAO inhibitory activity IC50; for Selectivity for VAP-1 SSAO over MAO: ratio of total rat MAO IC50 to human VAP-1 SSAO IC50
T2 construct: expressed in transfected cells; host or cells: CHO cells (clarified NP40 lysate used directly)
T2 sequence (Q16853 1-763): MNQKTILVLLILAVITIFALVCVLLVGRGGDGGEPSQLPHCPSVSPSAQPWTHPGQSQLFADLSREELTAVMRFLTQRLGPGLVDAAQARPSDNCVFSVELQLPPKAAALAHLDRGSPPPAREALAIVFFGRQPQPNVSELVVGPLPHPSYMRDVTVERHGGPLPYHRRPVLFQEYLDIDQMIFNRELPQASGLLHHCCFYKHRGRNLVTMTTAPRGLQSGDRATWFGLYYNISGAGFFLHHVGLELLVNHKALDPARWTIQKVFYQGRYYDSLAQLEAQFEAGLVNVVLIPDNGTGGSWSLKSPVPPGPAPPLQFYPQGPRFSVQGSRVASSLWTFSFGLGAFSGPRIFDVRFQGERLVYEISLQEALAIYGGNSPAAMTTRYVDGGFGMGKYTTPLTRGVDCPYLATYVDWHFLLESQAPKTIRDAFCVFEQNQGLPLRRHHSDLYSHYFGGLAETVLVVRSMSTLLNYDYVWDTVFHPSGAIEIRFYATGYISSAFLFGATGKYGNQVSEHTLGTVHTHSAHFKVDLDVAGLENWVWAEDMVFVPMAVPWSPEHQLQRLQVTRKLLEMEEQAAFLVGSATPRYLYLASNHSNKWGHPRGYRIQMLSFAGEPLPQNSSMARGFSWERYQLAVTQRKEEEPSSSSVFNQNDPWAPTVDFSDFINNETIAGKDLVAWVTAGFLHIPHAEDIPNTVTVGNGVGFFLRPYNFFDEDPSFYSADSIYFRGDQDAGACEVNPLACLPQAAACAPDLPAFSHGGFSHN
Method: VAP-1 SSAO activity was measured using the coupled colourimetric method essentially as described for monoamine oxidase and related enzymes. Recombinant human VAP-1 SSAO expressed in Chinese Hamster Ovary (CHO) cells was used as a source of VAP-1 SSAO for activity measurements. Native CHO cells have negligible SSAO activity. These cells and their culture have previously been described (Smith D J et al., 1998).
A cell lysate was prepared by suspending approximately 3.6×10^8 cells in 25 ml lysis buffer (150 mM NaCl, 10 mM Tris-Base pH 7.2, 1.5 mM MgCl2, 1% NP40) and incubating at 4° C. overnight on a rotating table. The lysate was clarified by centrifugation at 18000 g for 5 min at room temperature and the supematant used directly in the assay.
The VAP-1 SSAO assay was performed in 96 well microtitre plates as follows. To each well was added a predetermined amount of inhibitor if required. The amount of inhibitor varied in each assay but was generally at a final concentration of between 1 nM and 50 μM. Controls lacked inhibitor. The inhibitor was in a total volume of […] in water. The following reagents were then added. 0.2M potassium phosphate buffer pH 7.6 to a total reaction volume of 200 μl, 45 μl of freshly made chromogenic solution containing 1 mM 2,4-dichlorophenol, 500 μM 4-aminoantipyrine and 4 U/ml horseradish peroxidase and an amount of CHO cell lysate containing VAP-1 SSAO that caused a change of 0.6 A490 per h. This was within the linear response range of the assay.
The plates were incubated for 30 min at 37° C. and the background absorbance measured at 490 nm using a Wallac Victor II multilabel counter. To initiate the enzyme reaction 20 μl 10 mM benzylamine (final concentration=1 mM) was added and the plate incubated for 1 h at 37° C.
The increase in absorbance, reflecting VAP-1 SSAO activity, was measured at 490 nm. Inhibition was presented as percent inhibition compared to control after correcting for background absorbance and IC50. values calculated using GraphPad Prism.

Row | IC50 [1] | IC50 [2] | Selectivity for VAP-1 SSAO over MAO [2] | SMILES
1 | 13000 nM | 370 nM | 35 | CN(N)CC(O)COc1ccccc1.O=C(O)/C=C\C(=O)O (stereo not drawn) [Compound 1]
2 | 8700 nM | 520 nM | 17 | Cc1ccccc1OCC(O)CN(C)N.O=C(O)/C=C/C(=O)O (stereo not drawn) [Compound 2]
3 | 3300 nM | 260 nM | 13 | COC(COc1ccc(Cl)cc1)CN(C)N.O=C(O)/C=C/C(=O)O (stereo not drawn) [Compound 3]
4 | 10000 nM | 430 nM | 23 | Cc1ccc(OCC(O)CN(C)N)cc1.O=C(O)/C=C/C(=O)O (stereo not drawn) [Compound 4]
5 | 4000 nM | 520 nM | 8 | COC(COc1cccc2ccccc12)CN(C)N.O=C(O)/C=C\C(=O)O (stereo not drawn) [Compound 5]
6 | 3300 nM | 90 nM | 37 | COc1ccc(OCC(O)CNNc2ccccc2)cc1.Cl (stereo not drawn) [Compound 6]
7 | 6000 nM | 440 nM | 14 | COC(COc1ccc(C)cc1)CN(C)N.O=C(O)/C=C/C(=O)O (stereo not drawn) [Compound 7]
8 | 10000 nM | 650 nM | 15 | CN(N)CC(O)COc1cccc2ccccc12.O=C(O)/C=C\C(=O)O (stereo not drawn) [Compound 8]
9 | 41000 nM | 210 nM | 195 | COc1ccc(SCC(O)CN(C)N)cc1OC.O=C(O)/C=C/C(=O)O (stereo not drawn) [Compound 9]
10 | 6000 nM | 550 nM | 11 | CN(N)CC(O)COc1ccc2ccccc2c1.O=C(O)/C=C/C(=O)O (stereo not drawn) [Compound 10]
11 | 11000 nM | 270 nM | 41 | CN(N)CC(O)CSc1ccccc1.O=C(O)/C=C/C(=O)O (stereo not drawn) [Compound 11]
12 | 37000 nM | 330 nM | 112 | COc1cccc(OCC(O)CN(C)N)c1.O=C(O)/C=C/C(=O)O (stereo not drawn) [Compound 12]
13 | 3300 nM | 640 nM | 5 | COC(COc1ccc2ccccc2c1)CN(C)N.O=C(O)/C=C/C(=O)O (stereo not drawn) [Compound 13]
14 | 3400 nM | 370 nM | 9 | COC(CSc1ccccc1)CN(C)N.O=C(O)/C=C/C(=O)O (stereo not drawn) [Compound 14]
15 | 7400 nM | 350 nM | 21 | COc1ccc(OCC(O)CN(C)N)cc1.O=C(O)/C=C\C(=O)O (stereo not drawn) [Compound 16]
16 | 6100 nM | 430 nM | 14 | CN(N)CC(O)COc1ccc(Cl)cc1.O=C(O)/C=C/C(=O)O (stereo not drawn) [Compound 17]
17 | 8800 nM | 200 nM | 45 | CN(N)CC(O)CN(C)c1ccccc1.O=C(O)/C=C/C(=O)O (stereo not drawn) [Compound 19]
18 | 9600 nM | 340 nM | 28 | COC(CN(C)N)CN(C)c1ccccc1.O=C(O)/C=C/C(=O)O (stereo not drawn) [Compound 20]
